For experiment [1], the system named is glmS riboswitch of Staphylococcus aureus MU50. As to the kind of experiment: metabolite-induced self-cleavage assay of the glmS riboswitch. In kind it is biochemical. On the procedure: The determination was performed using an in vitro preparation of the glmS riboswitch of Staphylococcus aureus MU50.
The glmS riboswitch DNA was amplified from genomic DNA of the S. aureus Mu50 strain (RKI Berlin) by standard Pfu polymerase chain reaction (PCR) using a 5′ primer containing the T7 promoter (GATAATACGACTCACTATAGGGCAGTTAAAGCGCCTGTGCAAATA, SEQ ID NO: 1) and a 3′ primer (ATCTTATTAACTTTGTCCATTAAGTCACCC, SEQ ID NO: 2) (20 cycles, annealing temperature of 60° C., homemade Pfu enzyme). The resultant of a 100 μl PCR reaction was phenol/chloroform extracted and precipitated using 3M NaOAc pH 5.4 and ethanol Pellets were resuspended in 10 μl diethylpyrocarbonate treated water (DEPC H2O) and used as template for T7 RNA polymerase-based transcription. […]
For this assay the following components were mixed to yield the stated final concentrations: cleavage buffer (50 mM Hepes pH 7.5, 200 mM KCl), MgCl2 (10 mM), glucosamine-6-phosphate (200 μM), glucosamine (GlcN) (200 μM), the compound according to formula (I) (200 μM) or the compound according to formula (3) (200 μM and 20 mM), radioactively labelled RNA (20 cps) and DEPC H2O ad 10 μl. […] The screens were read using a FujiFilm PhosphorImager FLA 3000 and evaluated using AIDA software.

Experiment [2] relates to Staphylococcus aureus SG511. As to the kind of experiment: determination of the minimal inhibitory concentration in Staphylococcus aureus SG511. In kind it is cell-based. As to conditions: 0.5× Mueller-Hinton media, 18-24 h, OD 600 nm; FIG. 3. How it is done: The determination of the minimal inhibitory concentration (MIC) of the compounds according to formula (I) (carba-GlcN6P) and formula (3) (carba-GlcN) was performed in clear, round bottom 96-well plates. For this 100 μl of 0.5× Mueller-Hinton media (Oxoid, 300 gm/litre dehydrated infusion from beef, 17.5 gm/litre casein hydrolysate, 1.5 gm/litre starch, pH 7.3) were put into the 12 wells. To the first well 100 μl of 320 mM solution of carba-GlcN were added, mixed by pipetting and 100 μl of this mixture were transferred into the next well etc., generating a sequence final dilutions from 160 mM to 0.08 mM. Finally, SG511 cells that had been grown to an optical density (OD600) of 1 were diluted in 0.5× Mueller-Hinton media 1:10 000. From this dilution 100 μl were added to the already prepared plate leading to a final compound concentration of 80 mM-0.04 mM. After incubation for 10 min at RT and vivid shaking, the 96-well plate was transferred to a 37° C. incubator. After 18-24 h of incubation the plate was read at 600 nm using a standard plate reader.

The subject of experiment [3] is Staphylococcus aureus Mu50 cells. As to the kind of experiment: growth inhibition in vancomycin intermediate resistant Staphylococcus aureus Mu50 in sugar free medium. In kind it is cell-based. On the procedure:
For the preparation of 2× chemically defined medium (2×CDM), a minimal medium for Staphylococcus aureus without glucose, for the preparation of 500 ml the following components were mixed in individual groups before being combined:
After preparation of the individual groups, the groups I-IV were added to group V. The volume was adjusted to 480 ml with ddH2O. The pH was adjusted to 7 using HCl followed by adjusting the volume to the final 500 ml. Before storage at 4° C. the medium was sterile filtered.
The determination of the decrease in bacterial growth of Staphylococcus aureus Mu50 cells (RKI Berlin) depending on the concentration of the compound according to formula (3) (C GlcN) was performed in clear, sterile, round bottom 96-well plates with lid. Before treatment, the cells were grown in 2×CDM medium without glucose at 37° C. for 24 h under vigorous shaking.
For the determination of the growth inhibition 100 μl of 2×CDM were put into each of 12 wells. […] The 96 well plate was incubated at 37° C. in a Tecan Sunrise plate reader, which tracks the optical density (OD600) in 10 minute intervals and automatically shakes the plate for one minute every two minutes. Minimal inhibitory concentration was read after 18 h to 24 h of incubation. […]

Experiment [4] shares this test system. As to the kind of experiment: synergistic effects with vancomycin treatment of S. aureus Mu50. In kind it is cell-based. As to conditions: 0.0025 mM alone.
Procedure: Before treatment, Staphylococcus aureus Mu50 cells (RKI Berlin) were grown in sterile, 15 ml flasks containing 5 ml of 2×CDM without glucose at 37° C. for 24 h under vigorous shaking.
For the determination of the growth inhibition 100 μl of 2×CDM containing 10 μM vancomycin were put into each of 12 wells. […] Finally, Mu50 cells that had been grown to an optical density (OD600) of 0.8 to 1 were diluted in 2×CDM to an optical density (OD600) of 0.2. From this dilution 100 μl were added to the already prepared plate leading to a final compound concentration of 80 mM, 40 mM, 20 mM, 10 mM, 5 mM, and 2.5 mM, a final concentration of 2.5 μM vancomycin and a final OD600 of 0.1 per well at the beginning of the measurement. The 96 well plate was incubated at 37° C. in a Tecan Sunrise plate reader, which tracks the optical density (OD600) in 10 minute intervals and automatically shakes the plate for one minute every two minutes. Minimal inhibitory concentration was read after 18 h to 24 h of incubation. Control cells were treated without compounds or with 2.5 μM vancomycin.

As to `N[C@H]1C(O)O[C@H](COP(=O)(O)O)[C@@H](O)[C@@H]1O` (stereo partly shown) [GlcN6P, glucosamine-6-phosphate, reference compound], in experiment [1] (concentration dependent analysis, 37° C., 30 min), the EC50 – broadly, the concentration at which the effect is half-maximal – turned out to be 3.61 ± 0.39 µM. For the compound `N[C@@H]1[C@@H](O)[C@H](O)[C@@H](COP(=O)(O)O)C[C@@H]1O` [formula (1), (1S,2S,3R,4R,5R)-2-amino-5-((phosphonooxy)methyl)-cyclohexane-1,3,4-triol], the “bacterial growth of Staphylococcus aureus” value in experiment [2] is “effectively inhibit the growth”. In addition, the “activation of the glmS-riboswitch compared with the native metabolite” value in experiment [1] (versus GlcN6P) is reported as “almost the same potency”. In the case of `NC1C(O)CC(CO)C(O)C1O` (stereo not shown) [formula (3), Carba-glucosamine], the MIC in experiment [3] (Staphylococcus aureus, MU50CELLS, 2×CDM without glucose, read after 18 h to 24 h, n=3, read-out: minimal inhibitory concentration (MIC)) amounted to 625 µM. The “concentration at which measureable growth inhibition started” value in experiment [3] (sugar free medium, referring to control cells grown without compounds, FIG. 4) is on record as 0.156 mM.

In the case of `CN[C@H](CC(C)C)C(=O)N[C@H]1C(=O)N[C@@H](CC(N)=O)C(=O)N[C@H]2C(=O)N[C@H]3C(=O)N[C@H](C(=O)N[C@H](C(=O)O)c4cc(O)cc(O)c4-c4cc3ccc4O)[C@H](O)c3ccc(c(Cl)c3)Oc3cc2cc(c3O[C@@H]2O[C@H](CO)[C@@H](O)[C@H](O)[C@H]2O[C@H]2C[C@](C)(N)[C@H](O)[C@H](C)O2)Oc2ccc(cc2Cl)[C@H]1O` [vancomycin], the “bacterial growth (OD600) compared to untreated cells” value in experiment [4] (after 10 h, FIG. 5) is recorded as “no change in the bacterial growth”; in experiment [4] (over 18 h of incubation, FIG. 6) it was “no change in the bacterial growth”.
